From patent publication EP0051301A1, “1-Carboxy-azaalkyl-indolin-2-carboxylic acids, process for preparing them, pharmaceutical compositions containing them and their therapeutical use” (CIBA-GEIGY AG, priority 1980, dated 1982)
Structures can show the parent of a compound that is named as a salt.

How the values were obtained:
[1] = system: durch Angiotensin I (AI) hervorgerufenen Blutdrucksteigerung; assay: Inhibition of the blood pressure rise caused by angiotensin I in anaesthetised normotensive rats; assay type: in vivo, Ratte; details: rat, mean value 30 min after administration
From the text: Die neuen Verbindungen zeigen auch eine Hemmwirkung auf das Ansprechen des Blutdrucks von normotensiven Ratten auf Angiotensin I. Das Enzym Renin verursacht unter normalen Verhältnissen eine spezifische Hydrolyse des zirkulierenden Renin-Substrat-Proteins. Diese Hydrolyse ergibt das Angiotensin I, welches durch die Einwirkung des genannten Enzyms, welches das Angiotensin umwandelt, in das stark gefässverengernde Angiotensin II weiter hydrolysiert wird. Durch Hemmung des genannten Enzyms wird die Entstehung des Angiotensins II aus I verhindert. Diese Hemmung dämpft daher jedes Ansprechen des Blutdrucks nach einer Angiotenin-I-Attacke.
Der entsprechende in vivo Test wird mit männlichen, normotensiven Ratten, welche mit 100-120 mg/kg intraperitoneal verabreichtem Natriumsalz des Aethyl-(l-methylpropyl)-malonylthioharnstoffs narkotisiert sind, vorgenommen. Eine femurale Arterie und eine Wadenvene werden mit je einer Hohlnadel für die direkte Messung des Blutdrucks und für die intravenöse Verabreichung des Angiotensins I und der erfindungsgemässen Verbindungen, versehen. Nach der Stabilisierung des basalen Blutdrucks, wird die Druckänderung nach drei, in 5-minutigen Intervallen durchgeführten, Reizungen mit 0,33 µg/kg Angiotensin I i.v., bestimmt. Druckänderungen werden auch 5, 10, 15, 30 und 60 Minuten nach entweder intravenöser oder peroraler Verabreichung (mit Magensonde) der zu prüfenden Verbindungen bestimmt. Die letztgenannten Druckänderungen werden mit den Anfangswerten verglichen. Jede festgestellte Abnahme vom Ansprechen des Blutdrucks ist ein Hinweis auf die Hemmung des Enzyms, welches das Angiotensin umwandelt. Diese Abnahme kann bis zu 80%, nach Dosen von 10 mg/kg i.v. oder 50 mg/kg p.o., betragen und bis 60 Minuten lang andauern.
In der in vivo Prüfungsmethode wird zuerst durch Verabreichung des Angiotensins 1 (AI) an das Versuchstier eine Blutdrucksteigerung hervorgerufen. Es wird dann die Hemmung der einzelnen Verbindungen auf diese Blutdrucksteigerung gemessen.
II. Methode der Hemmung der durch Angiotensin I (AI) hervorgerufenen Blutdrucksteigerung, durch intravenöse Verabreichung der Testverbindung (Z AI-Hemmung) In diesen Untersuchungen wird wie oben beschrieben, je ein Katheter in eine femurale Arterie und in eine Wadenvene der Ratte eingeführt.
Der arterielle Druck wurde von dem Arterienkatheter aus registriert, während man Angiotensin I (AI) und die einzelnen Testverbindungen durch den Venenkatheter injiziert hatte. Die Hemmung der durch Angiotensin I verursachten Blutdrucksteigerung ist in der Tabelle als Durchschnittswert 30 Minuten nach der Verabreichung von ausgewählten Dosen der jeweiligen Verbindung wiedergegeben. Dabei werden solche Dosierungen ausgewählt, so dass u.a. der ID50 (i.v.)-Wert ermittelt werden kann.

[2] = biological target: T1, angiotensin converting enzyme = ACE (Oryctolagus cuniculus, UniProt P12822); assay: In vitro ACE inhibition (ACEI), release of histidyl-leucine from hippuryl-histidyl-leucine, rabbit lung tissue preparation; assay type: biochemical, Kaninchen; details: incubation 30 min at 37°
T1 construct: Dieses Enzym wird aus Lungen von erwachsenen männlichen Kaninchen in Tris-Puffer; from tissue; host or cells: lung of adult male rabbits
T1 sequence (P12822 34-1310): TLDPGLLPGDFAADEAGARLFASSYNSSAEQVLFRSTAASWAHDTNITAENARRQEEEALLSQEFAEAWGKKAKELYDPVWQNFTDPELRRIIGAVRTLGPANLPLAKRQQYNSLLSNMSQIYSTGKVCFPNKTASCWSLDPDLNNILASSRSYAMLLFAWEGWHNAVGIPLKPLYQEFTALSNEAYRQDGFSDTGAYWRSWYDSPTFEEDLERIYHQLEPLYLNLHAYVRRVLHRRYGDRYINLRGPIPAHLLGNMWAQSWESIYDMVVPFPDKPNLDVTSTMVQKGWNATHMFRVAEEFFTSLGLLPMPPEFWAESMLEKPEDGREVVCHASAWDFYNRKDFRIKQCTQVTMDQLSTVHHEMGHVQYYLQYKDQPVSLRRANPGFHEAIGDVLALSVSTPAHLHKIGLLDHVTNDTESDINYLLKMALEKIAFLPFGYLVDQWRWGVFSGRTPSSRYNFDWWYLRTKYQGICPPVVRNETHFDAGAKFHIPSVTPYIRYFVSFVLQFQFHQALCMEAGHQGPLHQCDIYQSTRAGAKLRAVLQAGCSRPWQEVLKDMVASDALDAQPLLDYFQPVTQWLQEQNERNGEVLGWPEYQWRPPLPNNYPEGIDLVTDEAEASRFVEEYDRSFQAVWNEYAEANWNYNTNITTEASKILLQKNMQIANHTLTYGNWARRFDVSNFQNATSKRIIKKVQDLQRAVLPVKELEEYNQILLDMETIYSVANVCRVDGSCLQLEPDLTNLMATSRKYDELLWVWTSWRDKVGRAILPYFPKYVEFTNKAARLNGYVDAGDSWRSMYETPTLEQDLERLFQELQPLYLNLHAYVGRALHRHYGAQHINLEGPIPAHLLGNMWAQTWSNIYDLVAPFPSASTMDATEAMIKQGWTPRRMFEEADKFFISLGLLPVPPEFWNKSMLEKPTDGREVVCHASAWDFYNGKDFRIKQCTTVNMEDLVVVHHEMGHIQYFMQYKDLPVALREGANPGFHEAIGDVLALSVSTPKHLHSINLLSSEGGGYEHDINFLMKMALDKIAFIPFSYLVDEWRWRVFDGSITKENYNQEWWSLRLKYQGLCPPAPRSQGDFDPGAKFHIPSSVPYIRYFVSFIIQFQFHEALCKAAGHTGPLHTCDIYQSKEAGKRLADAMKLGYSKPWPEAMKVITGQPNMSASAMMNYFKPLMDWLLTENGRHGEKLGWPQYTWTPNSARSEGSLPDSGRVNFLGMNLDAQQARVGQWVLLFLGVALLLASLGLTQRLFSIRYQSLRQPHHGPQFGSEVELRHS
From the text: Die in vitro Hemmung des Enzyms, welches das Angiotensin umwandelt, kann bei den Verbindungen dieser Erfindung analog zu Biochim. Biophys. Acta 293, 451 (1973) nachgewiesen werden. Gemäss dieser Methode werden die genannten Verbindungen in ungefähr 1 mMol Konzentrationen in Phosphatpuffer, welcher von aussen mit Eis gekühlt wird, aufgelöst. Zu diesen Lösungen gibt man zuerst verschiedene µl-Mengen von 1 mMolarem Histidyl-leucin in Phosphatpuffer und dann 100 pl von 5mMolarem Hippuryl-histidyl-leucin in Phosphatpuffer und 50 pl des Angiotensin-umwandelnden Enzyms. Dieses Enzym wird aus Lungen von erwachsenen männlichen Kaninchen in Tris-Puffer, der Kalium-und Magnesiumchlorid und auch Rohrzucker enthält, frisch hergestellt. Die genannten Lösungen werden 30 Minuten bei 37° inkubiert und die weitere Reaktion wird durch Hinzufügen von 0,75 ml einer 0,6-normalen wässerigen Natriumhydroxidlösung gestoppt. Dann gibt man bei Zimmertemperatur 100 µl o-Phthalaldehyd und nach 10 Minuten 100 µl 6-normaler Chlorwasserstoffsäure dazu. Die Proben werden in einem Spektroghotometer bei 360 nm mit Wasser verglichen und ihre optische Dichte wird bestimmt. Diese Werte werden durch einen Konversionsfaktor einer Standard-Kurve angepasst, wobei man die während der genannten Inkubation von 30 Minuten gebildete Histidyl-leucin-Menge in Nanomolen erhält. Die Ergebnisse werden, um den IC50-Wert zu bestimmen, gegenüber den Wirkstoff-Konzentrationen graphisch als Kurve dargestellt. Dieser Wert bedeutet diejenige Wirkstoff-Konzentration, welche die Hälfte der Aktivität einer Kontrollprobe, die keinen Wirkstoff enthält, ergibt. Die genannten repräsentativen Verbindungen der vorliegenden Erfindung sind auch in diesem in vitro Testsystem, bis zu dem IC50-Wert von 39 nM und darunter, sehr wirksam.
Die Prüfung der Wirkung von Verbindungen ist gemäss den Methoden für die Auswertung der Hemmung des Enzyms, welches das Angiotensin umwandelt [angiotensin converting enzyme = ACE] durchgeführt worden. […]

IC50 [2] [nM] | SMILES | % AI Hemmungen ([1]; i.v. Dosis 0.1 mg/kg) [%] | % AI Hemmungen ([1]; i.v. Dosis 0.03 mg/kg) [%] | % AI Hemmungen ([1]; i.v. Dosis 0.06 mg/kg) [%] | % AI Hemmungen ([1]; i.v. Dosis 1.0 mg/kg) [%]
8000 | CCOC(=O)[C@@H](CCc1ccccc1)N[C@@H](C)C(=O)N1c2ccccc2C[C@H]1C(=O)O [Beispiel 6, 1-[N-(lR-Carboäthoxy-3-phenyl-propyl)-S-alanyl]-indolin-2S-carbonsäure-hydrochlorid] | 35 |  |  | 
 | CCOC(=O)[C@H](CCc1ccccc1)N[C@@H](C)C(=O)N1c2ccccc2C[C@H]1C(=O)O [Beispiel 4, 1-[N-(lS-Carboäthoxy-3-phenyl-propyl)-S-alanyl]-indolin-2S-carbonsäurehydrochlorid] | 95 | 33 | 80 | 
6 | C[C@H](NC(CCc1ccccc1)C(=O)O)C(=O)N1c2ccccc2C[C@H]1C(=O)O (stereo partly drawn) [Beispiel 1, 1-[N-(1-Carboxy-3-phenylpropyl)-S-alanyl]-indolin-2S-carbonsäure] | 80 |  |  | 
30 | C[C@H](NC(Cc1ccccc1)C(=O)O)C(=O)N1c2ccccc2C[C@H]1C(=O)O (stereo partly drawn) [Beispiel 7, 1-[N-(1-Carboxy-2-phenyl-äthyl)-S-alanyl]-indolin-2S-carbonsäure] |  |  |  | 80
